Assays:
[1] = system: Monocotyledonous and dicotyledonous test plants; assay: Herbicidal action before emergence of the plants (pre-emergence action), greenhouse pot test, 9-level rating after 4 weeks; format: in vivo; set-up: key: 9-level scale: 1 = complete damage, 9 = no effect; details: 250 g/ha, rated after 4 weeks, 9-level scale
Procedure: Herbicidal Action Before Emergence of the Plants (Pre-Emergence Action)
(§1) Monocotyledonous and dicotyledonous test plants are sown in standard soil in pots. Immediately after sowing, the test substances are sprayed on at an optimum dosage (500 l of water/ha) as an aqueous suspension (prepared from a wettable powder (example F3, b) according to WO 97/34485) or emulsion (prepared from an emulsion concentrate (example F1, c) according to WO 97/34485). The test plants are then grown under optimum conditions in a greenhouse.
After a test period of 4 weeks, the test is evaluated using a 9-level scale of ratings (1=complete damage, 9=no effect). Ratings of 1 to 4 (in particular 1 to 3) mean good to very good herbicidal action.

[2] = system: Monocotyledonous and dicotyledonous test plants; assay: Post-emergence herbicidal action, greenhouse pot test, sprayed at the 2- to 3-leaf stage, 9-level rating after 2 to 3 weeks; format: in vivo; set-up: key: 9-level scale: 1 = complete damage, 9 = no effect; details: 250 g/ha, rated after 2 to 3 weeks, 9-level scale
Procedure: Post-Emergence Herbicidal Action
as §1, with “grown” for “sown”, “At the 2- to 3-leaf stage of the test plants,” for “Immediately after sowing,”, “sprayed” for “sprayed on”, “at” for “at an”, “grown further” for “grown”
After a test period of 2 to 3 weeks, the test is evaluated using a 9-level scale of rating (1=complete damage, 9=no effect). Ratings of 1 to 4 (in particular 1 to 3) mean good to very good herbicidal action.

SMILES | Pre-emergence action rating, Abutilon [1] | Pre-emergence action rating, Amaranthus [1] | Pre-emergence action rating, Chenop. [1] | Pre-emergence action rating, Digitaria [1] | Pre-emergence action rating, Echino. [1] | Pre-emergence action rating, Panicum [1] | Post-emergence action rating, Abutilon [2] | Post-emergence action rating, Amaranth [2] | Post-emergence action rating, Chenop. [2] | Post-emergence action rating, Digitaria [2] | Post-emergence action rating, Echino. [2] | Post-emergence action rating, Ipopur. [2] | Post-emergence action rating, Panicum [2] | Post-emergence action rating, Xanth. [2]
O=C(C1=C(O)C2CCC(C2)C1=O)c1ccc(C(F)(F)F)nc1COC1COC1 (stereo not shown) [A24-B52] | 1 | 1 | 1 | 1 | 1 | 1 | 2 | 2 | 1 | 2 | 2 | 2 | 2 | 2
CCCOCCOCc1nc(C(F)(F)F)ccc1C(=O)C1=C(O)C2CCC(C2)C1=O (stereo not shown) [A841-B52] | 1 | 1 | 1 | 2 | 1 | 1 | 3 | 1 | 1 | 4 | 4 | 3 | 2 | 3
O=C(C1=C(O)C2CCC(C2)C1=O)c1ccc(C(F)(F)F)nc1COC1CCCCO1 (stereo not shown) [A28-B52] | 2 | 3 |  | 2 | 2 | 1 | 2 | 1 | 1 | 2 | 2 | 4 | 1 | 3
CCN(CC)CC.COCCOCc1nc(C(F)(F)F)ccc1C(=O)C1=C(O)C2CCC(C2)C1=O (stereo not shown) [A10-B52 (Et3NH+)] | 1 | 1 | 1 | 1 | 2 | 1 | 2 | 2 | 1 | 2 | 2 | 2 | 2 | 2
COCCOCc1nc(C(F)(F)F)ccc1C(=O)C1=C(O)CCCC1=O [A10-B1] | 1 | 1 | 1 | 2 | 2 | 2 | 2 | 2 | 1 | 2 | 2 | 2 | 2 | 2
CCN(CC)CC.O=C(C1=C(O)C2CCC(C2)C1=O)c1ccc(C(F)(F)F)nc1COC1CCCO1 (stereo not shown) [A837-B52 (Et3NH+)] | 1 | 1 | 1 | 1 | 2 | 1 | 2 | 2 | 1 | 2 | 2 | 2 | 2 | 2
COCCOCc1nc(C(F)(F)F)ccc1C(=O)c1c(C)nn(C)c1O [A10-C2 (H6), (5-Hydroxy-1,3-dimethyl-1H-pyrazol-4-yl)-[2-(2-methoxyethoxymethyl)-6-trifluoromethylpyridin-3-yl]methanone] | 1 | 2 | 1 | 3 | 3 | 3 | 2 | 1 | 1 | 4 | 3 | 3 | 2 | 1
COCCOCc1nc(C(F)(F)F)ccc1C(=O)C1=C(O)CC(C)CC1=O (stereo not shown) [A10-B111] | 1 | 1 |  | 1 | 1 | 1 | 3 | 2 | 1 | 2 | 3 | 3 | 2 | 3
O=C(C1=C(O)C2CCC(C2)C1=O)c1ccc(C(F)(F)F)nc1COCc1ccccc1 (stereo not shown) [A67-B52] | 3 | 2 | 1 | 2 | 2 | 1 | 2 | 2 | 1 | 2 | 2 | 3 | 2 | 2
C#CCOCc1nc(C(F)(F)F)ccc1C(=O)C1=C(O)C2CCC(C2)C1=O (stereo not shown) [A18-B52] | 2 | 2 |  | 1 | 1 | 1 | 1 | 1 | 1 | 1 | 2 | 2 | 1 | 2
O=C(C1=C(O)C2CCC(C2)C1=O)c1ccc(C(F)(F)F)nc1COCC1CCCCO1 (stereo not shown) [A63-B52] | 5 | 3 |  | 3 | 1 | 2 | 2 | 2 | 2 | 2 | 2 | 2 | 1 | 2
CCOCCOCc1nc(C(F)(F)F)ccc1C(=O)c1cnn(C)c1OS(C)(=O)=O [A11-C28] | 2 | 1 | 1 | 2 | 1 | 2 | 3 | 2 | 1 | 4 | 4 | 3 | 3 | 3
COCCOCc1nc(C(F)(F)F)ccc1C(=O)C1=C(O)CCC2(CC2)C1=O [A10-B17] | 4 | 2 | 1 | 1 | 1 | 1 | 2 | 2 | 1 | 1 | 2 | 2 | 2 | 2

— patent US7378375B1, “Substituted pyridine herbicides” (Syngenta Crop Protection, Inc., priority 2000, dated 2008)
